From patent US20250320227A1, “MACROCYCLIC OREXIN RECEPTOR AGONISTS AND USES THEREOF” (Jazz Pharmaceuticals Ireland Limited, priority 2022, published 2025)

Molecular target: T1, human recombinant OX2 (hOX2) receptors expressed in CHO cells (Homo sapiens, UniProt O43614)
T1 construct: host or cells: CHO cells (hOX2-CHO)
T1 sequence (O43614 1-444): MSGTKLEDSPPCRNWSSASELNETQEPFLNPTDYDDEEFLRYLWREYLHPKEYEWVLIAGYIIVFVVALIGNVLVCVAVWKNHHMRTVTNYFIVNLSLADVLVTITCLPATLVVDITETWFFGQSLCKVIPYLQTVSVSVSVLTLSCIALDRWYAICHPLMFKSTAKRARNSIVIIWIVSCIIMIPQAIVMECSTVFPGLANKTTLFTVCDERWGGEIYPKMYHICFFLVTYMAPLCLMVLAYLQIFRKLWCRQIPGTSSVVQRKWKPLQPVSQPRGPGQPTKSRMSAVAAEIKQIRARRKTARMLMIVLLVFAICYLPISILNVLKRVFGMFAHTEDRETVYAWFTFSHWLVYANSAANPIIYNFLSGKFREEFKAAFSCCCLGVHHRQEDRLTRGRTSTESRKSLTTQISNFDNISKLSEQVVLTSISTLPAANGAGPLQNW
Test: IP-1 accumulation assay (IP-One HTRF) in hOX2-CHO cells
Format: cell-based
Details: 60 min incubation at 37° C., mean of at least two independent experiments, read-out: EC50_OX2R Category
How it was run: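 CHO cells in suspension in HBSS/20 mM HEPES pH 7.4 with 50 mM LiCl and 0.1% BSA, given compound (11-point series, 0.5% DMSO) for 60 min at 37 °C. IP-1 read by HTRF ratio, scaled to maximal OX-A response; EC50 from four-parameter fit, mean of ≥2 experiments.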

EC50 [nM]	SMILES
< 100	O=C1COC[C@@]2(CCCN3C(=O)C4(CC4)COc4ccccc4[C@H]4CC[C@H](CC4)OC[C@H]32)N1 (single isomer, unassigned) [Example 37a, (1′s,16′S,17′R,20′s)-dispiro[cyclopropane-1,10′-[8,19]dioxa-[12]azatetracyclo[18.2.2.0^2,70.0^12,17]tetracosane-16′,3″-morpholine]-2′(7′),3′,5′-triene-5″,11′-dione]
1000 to 10000	O=C1COC[C@]2(CCCN3C(=O)C4(CC4)COc4ccccc4[C@H]4CC[C@H](CC4)OC[C@@H]32)N1 (single isomer, unassigned) [Example 37b, (1′s,16′R,17′S,20′s)-dispiro[cyclopropane-1,10′-[8,19]dioxa-[12]azatetracyclo[18.2.2.0^2,70.0^12,17]tetracosane-16′,3″-morpholine]-2′(7′),3′,5′-triene-5″,11′-dione]
< 100	O=C1COC[C@@]2(CCCN3C(=O)COc4c(F)cccc4[C@H]4CC[C@H](CC4)OC[C@H]32)N1 (single isomer, unassigned) [Example 38a]
1000 to 10000	O=C1COC[C@]2(CCCN3C(=O)COc4c(F)cccc4[C@H]4CC[C@H](CC4)OC[C@@H]32)N1 (single isomer, unassigned) [Example 38b]
> 10000	O=C1COC[C@@]2(CCCN3C(=O)COc4c(F)cc(F)cc4[C@H]4CC[C@H](CC4)OC[C@H]32)N1 (single isomer, unassigned) [Example 39a]
< 100	O=C1COC[C@]2(CCCN3C(=O)COc4c(F)cc(F)cc4[C@H]4CC[C@H](CC4)OC[C@@H]32)N1 (single isomer, unassigned) [Example 39b]
< 100	O=C1COC[C@@]2(CCCN3C(=O)COc4cccc(F)c4[C@H]4CC[C@H](CC4)OC[C@H]32)N1 (single isomer, unassigned) [Example 40a]
1000 to 10000	O=C1COC[C@]2(CCCN3C(=O)COc4cccc(F)c4[C@H]4CC[C@H](CC4)OC[C@@H]32)N1 (single isomer, unassigned) [Example 40b]
< 100	O=C1COC[C@@]2(CCCN3C(=O)COc4ccc(F)cc4[C@H]4CC[C@H](CC4)OC[C@H]32)N1 (single isomer, unassigned) [Example 41a]
1000 to 10000	O=C1COC[C@]2(CCCN3C(=O)COc4ccc(F)cc4[C@H]4CC[C@H](CC4)OC[C@@H]32)N1 (single isomer, unassigned) [Example 41b]
< 100	O=C1COC[C@@]2(CCCN3C(=O)COc4cc(F)cc(F)c4[C@H]4CC[C@H](CC4)OC[C@H]32)N1 (single isomer, unassigned) [Example 42a]
100 to 1000	O=C1COC[C@]2(CCCN3C(=O)COc4cc(F)cc(F)c4[C@H]4CC[C@H](CC4)OC[C@@H]32)N1 (single isomer, unassigned) [Example 42b]
< 100	O=C1COC[C@@]2(CCCN3C(=O)COc4ccc(F)c(F)c4[C@H]4CC[C@H](CC4)OC[C@H]32)N1 (single isomer, unassigned) [Example 43a]
> 10000	O=C1COC[C@]2(CCCN3C(=O)COc4ccc(F)c(F)c4[C@H]4CC[C@H](CC4)OC[C@@H]32)N1 (single isomer, unassigned) [Example 43b]
< 100	O=C1COC[C@@]2(CCCN3C(=O)COc4c(F)ccc(F)c4[C@H]4CC[C@H](CC4)OC[C@H]32)N1 (single isomer, unassigned) [Example 44a]
> 10000	O=C1COC[C@]2(CCCN3C(=O)COc4c(F)ccc(F)c4[C@H]4CC[C@H](CC4)OC[C@@H]32)N1 (single isomer, unassigned) [Example 44b]
< 100	O=C1COC[C@@]2(CCCN3C(=O)COc4ncccc4[C@H]4CC[C@H](CC4)OC[C@H]32)N1 (single isomer, unassigned) [Example 45a]
< 100	O=C1COC[C@@]2(CCCN3C(=O)COc4nccc(F)c4[C@H]4CC[C@H](CC4)OC[C@H]32)N1 (single isomer, unassigned) [Example 46a]
1000 to 10000	O=C1COC[C@]2(CCCN3C(=O)COc4nccc(F)c4[C@H]4CC[C@H](CC4)OC[C@@H]32)N1 (single isomer, unassigned) [Example 46b]
< 100	Cc1cccc2c1[C@H]1CC[C@H](CC1)OC[C@@H]1N(CCC[C@@]13COCC(=O)N3)C(=O)CO2 (single isomer, unassigned) [Example 47a]
1000 to 10000	Cc1cccc2c1[C@H]1CC[C@H](CC1)OC[C@H]1N(CCC[C@]13COCC(=O)N3)C(=O)CO2 (single isomer, unassigned) [Example 47b]
< 100	O=C1COC[C@@]2(CCCN3C(=O)CCOc4c(F)cccc4[C@H]4CC[C@H](CC4)OC[C@H]32)N1 (single isomer, unassigned) [Example 48a]

EC50 [nM]	SMILES
< 100	O=C1COC[C@]2(CCCN3C(=O)CCOc4c(F)cccc4[C@H]4CC[C@H](CC4)OC[C@@H]32)N1 (single isomer, unassigned) [Example 48b]
< 100	O=C1COC[C@@]2(CCCN3C(=O)CCOc4ccc(F)cc4[C@H]4CC[C@H](CC4)OC[C@H]32)N1 (single isomer, unassigned) [Example 49a]
< 100	O=C1COC[C@]2(CCCN3C(=O)CCOc4ccc(F)cc4[C@H]4CC[C@H](CC4)OC[C@@H]32)N1 (single isomer, unassigned) [Example 49b]
< 100	O=C1COC[C@@]2(CCCN3C(=O)CCOc4c(F)cc(F)cc4[C@H]4CC[C@H](CC4)OC[C@H]32)N1 (single isomer, unassigned) [Example 50a]
100 to 1000	O=C1COC[C@]2(CCCN3C(=O)CCOc4c(F)cc(F)cc4[C@H]4CC[C@H](CC4)OC[C@@H]32)N1 (single isomer, unassigned) [Example 50b]
< 100	O=C1COC[C@@]2(CCCN3C(=O)OCCOc4cccc(c4)[C@H]4CC[C@H](CC4)OC[C@H]32)N1 (single isomer, unassigned) [Example 53a]
> 10000	O=C1COC[C@]2(CCCN3C(=O)OCCOc4cccc(c4)[C@H]4CC[C@H](CC4)OC[C@@H]32)N1 (single isomer, unassigned) [Example 53b]
< 100	O=C1COC[C@@]2(CCCN3C(=O)OCCCOc4cccc(c4)[C@H]4CC[C@H](CC4)OC[C@H]32)N1 (single isomer, unassigned) [Example 54a]
1000 to 10000	O=C1COC[C@]2(CCCN3C(=O)OCCCOc4cccc(c4)[C@H]4CC[C@H](CC4)OC[C@@H]32)N1 (single isomer, unassigned) [Example 54b]
< 100	O=C1N[C@]2(CCCN3C(=O)COc4ccccc4[C@H]4CC[C@H](CC4)OC[C@H]32)COC1F (single isomer, unassigned) [Example 56a]
< 100	O=C1N[C@@]2(CCCN3C(=O)COc4ccccc4[C@H]4CC[C@H](CC4)OC[C@@H]32)COC1F (single isomer, unassigned) [Example 56b]
< 100	O=C1CCC[C@@]2(CCCN3C(=O)COc4ccccc4[C@H]4CC[C@H](CC4)OC[C@H]32)N1 (single isomer, unassigned) [Example 58a]
> 10000	O=C1CCC[C@]2(CCCN3C(=O)COc4ccccc4[C@H]4CC[C@H](CC4)OC[C@@H]32)N1 (single isomer, unassigned) [Example 58b]
< 100	O=C1COc2ccccc2[C@H]2CC[C@H](CC2)OC[C@@H]2N1CCC[C@@]21CCCS(=O)(=O)N1 (single isomer, unassigned) [Example 59a]
1000 to 10000	O=C1COc2ccccc2[C@H]2CC[C@H](CC2)OC[C@H]2N1CCC[C@]21CCCS(=O)(=O)N1 (single isomer, unassigned) [Example 59b]
< 100	O=C1N[C@]2(CCCN3C(=O)COc4ccccc4[C@H]4CC[C@H](CC4)OC[C@H]32)CO1 (single isomer, unassigned) [Example 67a]
> 10000	O=C1N[C@@]2(CCCN3C(=O)COc4ccccc4[C@H]4CC[C@H](CC4)OC[C@@H]32)CO1 (single isomer, unassigned) [Example 67b]
100 to 1000	O=C1CS[C@@]2(CCCN3C(=O)COc4ccccc4[C@H]4CC[C@H](CC4)OC[C@H]32)N1 (single isomer, unassigned) [Example 68a]
> 10000	O=C1CS[C@]2(CCCN3C(=O)COc4ccccc4[C@H]4CC[C@H](CC4)OC[C@H]32)N1 (single isomer, unassigned) [Example 68b]
1000 to 10000	O=C1COC[C@]2(CCCN3C(=O)C4(CC4)COc4cccc(F)c4[C@H]4CC[C@H](CC4)OC[C@@H]32)N1 (single isomer, unassigned) [Example 72a, (1′s,16′R,17′S,20′s)-3′-fluorodispiro [cyclopropane-1,10′-[8,19]dioxa-[12]azatetracyclo [18.2.2.0^2,^7.0^12,^17]tetracosane-16′,3″- morpholine]-2′,4′,6′-triene-5″,11′-dione]
< 100	O=C1COC[C@@]2(CCCN3C(=O)C4(CC4)COc4cccc(F)c4[C@H]4CC[C@H](CC4)OC[C@H]32)N1 (single isomer, unassigned) [Example 72b, (1′s,16′S,17′R,20′s)-3′-fluorodispiro[cyclopropane-1,10′-[8,19]dioxa-[12]azatetracyclo [18.2.2.0^2,^7.0^12,^17]tetracosane-16′,3″- morpholine]-2′,4′,6′-triene-5″,11′-dione]
